These results are taken from ChEMBL document CHEMBL4417632, “Inhibitors of alpha-amino-beta-carboxymuconic acid semialdehyde decarboxylase” (2017).

Data set [1] concerns the target 2-amino-3-carboxymuconate-6-semialdehyde decarboxylase (Mus musculus) (UniProt Q8R519). Description: Inhibition of ACMSD in C57BL/6J mouse primary hepatocytes assessed as increase in Sod1 mRNA expression incubated for 24 hrs by RT-qPCR analysis. In kind it is cell-based.
The target is the same in data set [2]. Description: Inhibition of ACMSD in C57BL/6J mouse primary hepatocytes assessed as increase in Pgc1a mRNA expression incubated for 24 hrs by RT-qPCR analysis. It counts as cell-based.
Data set [3] addresses 2-amino-3-carboxymuconate-6-semialdehyde decarboxylase (Homo sapiens) (UniProt Q8TDX5). Description: Inhibition of ACMSD in human primary hepatocytes assessed as increase in NAD\"\" concentration following compound replacement every 24 hrs by LC-MS/MS analysis relative to control. In kind it is cell-based.
The target in data set [4] is 2-amino-3-carboxymuconate-6-semialdehyde decarboxylase (Mus musculus) (UniProt Q8R519). Description: Inhibition of ACMSD in C57BL/6J mouse primary hepatocytes assessed as increase in Sod2 mRNA expression incubated for 24 hrs by RT-qPCR analysis. In kind it is cell-based.
For data set [5] the target is unchanged. Nature of the data set: Inhibition of ACMSD in mouse AML12 cells assessed as induction of SOD2 activity incubated for 24 hrs. In kind it is cell-based.
The target is the same in data set [6]. Description: Inhibition of ACMSD in C57BL/6J mouse primary hepatocytes assessed as induction of SOD2 activity incubated for 24 hrs. In kind it is cell-based.
For data set [7] the target is unchanged. Nature of the data set: Inhibition of ACMSD in mouse AML12 cells assessed as reduction in FoxO1 phosphorylation at Ser256 residue incubated for 24 hrs. In kind it is cell-based.
Another data set concerns HepG2. Description: Cytotoxicity against human HepG2 cells assessed as reduction in cell viability at 0.01 to 300 uM incubated for 4 hrs by LDH release assay. As to conditions: hepg2, 4 h. It counts as cell-based.
Data set [8] is described as follows: Cytotoxicity in mouse AML-12 cells assessed as reduction inc ell viability at 10 nM to 300 uM incubated for 4 hrs by LDH release assay. It counts as cell-based.
Data set [9] relates to MDCK. Nature of the data set: Inhibition of cisplatin-induced apoptosis in MDCK cells assessed as reduction in caspase 3/7 activity at 100 uM pre-incubated for 1 hr before cisplatin challenge for 16 hrs by luminescence based assay. In kind it is functional, cell-based. As to conditions: Canis lupus familiaris.
Data set [10] deals with MDCK. Description: Inhibition of cisplatin-induced apoptosis in MDCK cells assessed as reduction in caspase 3/7 activity at 100 uM pre-incubated for 1 hr before cisplatin challenge for 16 hrs by luminescence based assay relative to control. In kind it is functional. As to conditions: Canis lupus familiaris.
Data set [11] has as its system MDCK. Description: Inhibition of cisplatin-induced apoptosis in MDCK cells assessed as reduction in caspase 3/7 activity at 30 uM pre-incubated for 1 hr before cisplatin challenge for 16 hrs by luminescence based assay relative to control. It counts as functional. Conditions: Canis lupus familiaris.
Data set [12] deals with MDCK. Description: Inhibition of cisplatin-induced apoptosis in MDCK cells assessed as reduction in caspase 3/7 activity at 30 to 125 uM pre-incubated for 1 hr before cisplatin challenge for 16 hrs by luminescence based assay. In kind it is functional, cell-based. Conditions: Canis lupus familiaris.
The target of data set [13] is 2-amino-3-carboxymuconate-6-semialdehyde decarboxylase (Homo sapiens) (UniProt Q8TDX5). Nature of the data set: Inhibition of ACMSD in human primary hepatocytes assessed as increase in NAD concentration at 0.5 uM following compound replacement every 24 hrs by LC-MS/MS analysis. It counts as cell-based.
Data set [14] has the same target. Description: Inhibition of ACMSD in human primary hepatocytes assessed as increase in NAD concentration at 5 uM following compound replacement every 24 hrs by LC-MS/MS analysis. In kind it is cell-based.
For data set [15], the target named is 2-amino-3-carboxymuconate-6-semialdehyde decarboxylase (Mus musculus) (UniProt Q8R519). Nature of the data set: Inhibition of ACMSD in mouse AML12 cells assessed as increase in Sod2 mRNA expression incubated for 24 hrs by RT-qPCR analysis. In kind it is cell-based.
Data set [16] addresses 2-amino-3-carboxymuconate-6-semialdehyde decarboxylase (Homo sapiens) (UniProt Q8TDX5). Nature of the data set: Inhibition of ACMSD in human primary hepatocytes assessed as increase in NAD concentration at 250 uM following compound replacement every 24 hrs by LC-MS/MS analysis. It counts as cell-based.

Activity calls are given as the source filed them. The calls are words filed in the database; no cut-off is given here.

2-amino-3-carboxymuconate-6-semialdehyde decarboxylase (Homo sapiens), sequence (Q8TDX5 whole entry, looked up): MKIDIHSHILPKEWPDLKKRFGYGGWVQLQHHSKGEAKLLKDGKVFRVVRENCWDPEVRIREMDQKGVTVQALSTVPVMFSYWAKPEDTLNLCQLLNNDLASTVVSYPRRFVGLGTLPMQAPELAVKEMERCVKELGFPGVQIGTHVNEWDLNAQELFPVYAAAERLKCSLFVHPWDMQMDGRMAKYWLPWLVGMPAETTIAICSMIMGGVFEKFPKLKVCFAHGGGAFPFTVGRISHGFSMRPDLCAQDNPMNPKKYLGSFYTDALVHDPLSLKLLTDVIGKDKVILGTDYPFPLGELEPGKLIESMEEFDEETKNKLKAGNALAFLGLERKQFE
2-amino-3-carboxymuconate-6-semialdehyde decarboxylase (Mus musculus), sequence (Q8R519 whole entry): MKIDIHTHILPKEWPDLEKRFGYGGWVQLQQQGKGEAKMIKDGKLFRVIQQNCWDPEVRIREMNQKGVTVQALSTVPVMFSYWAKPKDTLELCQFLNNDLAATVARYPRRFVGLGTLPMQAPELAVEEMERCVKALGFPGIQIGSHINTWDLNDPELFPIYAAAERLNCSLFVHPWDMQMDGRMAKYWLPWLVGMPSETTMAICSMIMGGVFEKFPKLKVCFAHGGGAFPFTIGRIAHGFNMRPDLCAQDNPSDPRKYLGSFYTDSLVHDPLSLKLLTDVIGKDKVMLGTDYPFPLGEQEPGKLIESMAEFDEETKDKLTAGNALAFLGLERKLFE

Regarding `N#Cc1c(-c2cccs2)nc(SCc2cccc(-c3nnn[nH]3)c2)[nH]c1=O`, the inhibition entry in data set [1] was “inactive”. The inhibition result in [2], in data set [3], in [4], in data set [5], in [6] and in [7] was “Dose-dependent effect” each time.
`N#Cc1c(-c2cccs2)nc(SCc2cccc(-c3nn[nH]n3)c2)[nH]c1=O`: the Activity result (with HepG2; in data set [8]) was “Non-Toxic” throughout.
For `N#Cc1c(-c2cccs2)nc(SCc2cccc(CC(=O)O)c2)[nH]c1=O`, the inhibition result in the data set on MDCK [9] and with MDCK [12] was “Active” each time. Further, the inhibition at 100 µM in the data set with MDCK [10] came out at 75%. The inhibition at 30 µM in the data set on MDCK [11] was 29%.
Consider `O=C(O)c1cccc(CSc2nc(-c3ccccc3)c(Br)c(=O)[nH]2)c1`, for which the Activity entry (in the data set with HepG2; in data set [8]) was “Non-Toxic” in each case.
Regarding `N#Cc1c(-c2ccc(Cl)cc2)nc(SCc2ccc(C(=O)O)cc2)[nH]c1=O`, the Activity entry (with HepG2; in data set [8]) was “Non-Toxic” each time.
As to `N#Cc1c(-c2cccs2)nc(SCc2cccc(C(=O)O)c2)[nH]c1=O`, the Activity result (in the data set with HepG2; in data set [8]) was “Non-Toxic” throughout. For the same molecule, the inhibition entry in [13] and in data set [14] was “Active” throughout.
For `N#Cc1c(-c2ccccc2)nc(SCc2cccc(C(=O)O)c2)[nH]c1=O`, the Activity result (in the data set on HepG2; in data set [8]) was “Non-Toxic” throughout. Also, in data set [13], the inhibition entry is “Active”. Besides, the inhibition entry in data set [5], in [15], in data set [6] and in data set [7] was “Dose-dependent effect” throughout.
As to `N#Cc1c(-c2cccs2)nc(SCc2cccc(-c3noc(=O)[nH]3)c2)[nH]c1=O`, the Activity result (in the data set with HepG2; in [8]) was “Non-Toxic” each time.
As for `CCCCC(CC)COC(=O)c1ccccc1C(=O)O` (stereo not drawn), in [16], the inhibition result is “Active”.
With `N#Cc1c(-c2nccs2)nc(SCc2cccc(C(=O)O)c2)[nH]c1=O`, the Activity entry (in the data set on HepG2; in data set [8]) was “Non-Toxic” throughout.
